Source: ChEMBL document CHEMBL1130657, “Synthesis of novel fluorinated coumarins: excellent UV-light excitable fluorescent dyes” (Bioorg Med Chem Lett, 1998)

Experiment: Photostability, pKa was evaluated
Format: physicochemical

In order of falling pKa:
1. O=C(O)c1cc2ccc(O)cc2oc1=O  7.5
2. Cc1cc(=O)oc2c(F)c(O)ccc12  6.4
3. Cc1c(CC(=O)O)c(=O)oc2c(F)c(O)c(F)cc12  4.7
4. CCOC(=O)c1cc2cc(F)c(O)c(F)c2oc1=O  3.8
5. O=C(O)c1cc2cc(F)c(O)c(F)c2oc1=O  3.7
